Patent US11795177B2, “Substituted quinoline analogs as aldehyde dehydrogenase 1A1 (ALDH1A1) inhibitors” (THE UNITED STATES OF AMERICA, AS REPRESENTED BY THE …, priority 2017, dated 2023)

Experiments:
[1] = target: T1, ALDH1A1 enzyme (Homo sapiens, UniProt P00352); experiment: ALDH1A1 enzymatic assay (in vitro); assay type: biochemical; details: ALDH1A1 enzyme 20 nM, NAD+ 1 mM, propionaldehyde 80 μM; read-out: ALDH1A1 IC50
T1 sequence (P00352 1-501): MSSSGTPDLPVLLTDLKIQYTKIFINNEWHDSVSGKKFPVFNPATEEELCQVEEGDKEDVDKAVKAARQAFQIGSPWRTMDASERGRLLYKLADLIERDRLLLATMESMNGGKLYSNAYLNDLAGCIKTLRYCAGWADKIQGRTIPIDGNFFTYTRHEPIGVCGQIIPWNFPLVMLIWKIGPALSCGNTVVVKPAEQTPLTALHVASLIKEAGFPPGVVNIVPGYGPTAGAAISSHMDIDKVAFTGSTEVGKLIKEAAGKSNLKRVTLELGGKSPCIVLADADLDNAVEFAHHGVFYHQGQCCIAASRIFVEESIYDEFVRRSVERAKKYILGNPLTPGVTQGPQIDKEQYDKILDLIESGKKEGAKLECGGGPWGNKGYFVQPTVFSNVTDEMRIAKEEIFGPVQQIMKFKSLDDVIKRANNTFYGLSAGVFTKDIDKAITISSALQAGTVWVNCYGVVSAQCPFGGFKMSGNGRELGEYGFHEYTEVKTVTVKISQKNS
Protocol: Example 358. ALDH1A1 Enzymatic Assay (In Vitro Assay)
3 μL of ALDH1A1 enzyme (final concentration 20 nM) or assay buffer (100 mM HEPES pH 7.5 with 0.01% Tween 20) were dispensed into a 1,536-well solid-bottom black plate (Greiner Bio One, Monroe, N.C.) followed by pin-tool transfer (23 nL) of candidate inhibitors (final concentration range 968 pM to 57.2 μM) and control (Bay 11-7085, final concentration range 1.31 nM to 2.86 μM). Samples were incubated (RT, protected from light) for 15 minutes followed by a 1 μL substrate addition of NAD^+ and Propionaldehyde (final concentrations of 1 mM and 80 μM, respectively). Plates were centrifuged at 1,000 rpm for 15 seconds, then read in kinetic mode on a ViewLux High-throughput CCD imager (Perkin-Elmer) equipped with standard UV fluorescence optics (340 nm excitation, 450 nm emission) for 10 minutes. The change in fluorescence intensity over the 10-minute reaction period was normalized against no-inhibitor and no-enzyme controls and the resulting percent inhibition data were fitted for biological activity.

[2] = system: MIA PaCa-2 cells; experiment: MIA PaCa2 cell-based assay (1,536-well high-content imaging ALDEFLUOR assay); parameters: species or system human; details: Homo sapiens, 0.5 h, ALDEFLUOR BAAA substrate 500 nM, 30 minutes
In short: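 MIA PaCa-2 cells (1,000/well), plated overnight, given BAAA substrate (500 nM) plus Hoechst 33342 (0.5 nM), then compound (16-point, 1.4 nM–47.8 μM final; 0.5% DMSO). After 30 min at 37° C, ALDH activity imaged by high-content microscopy as BAA-retaining (FITC) cells versus Hoechst-stained nuclei.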

SMILES | IC50 [1] [µM] | IC50 [2] [µM]
COc1ccc2ncc(C(=O)N3CCN(C(=O)C4CC4)CC3)c(-n3cc(C)cn3)c2c1 [Example 35, (4-(cyclopropanecarbonyl)piperazin-1-yl)(6-methoxy-4-(4-methyl-1H-pyrazol-1-yl)quinolin-3-yl)methanone] | > 10 | –
C[C@@H]1CN(c2c(C(=O)N3CCN(C(=O)C4CC4)CC3)cnc3ccc(F)cc23)C[C@H](C)O1 [Example 60, (4-(cyclopropanecarbonyl)piperazin-1-yl)(44(2S*,6R*)-2,6-dimethylmorpholino)-6-fluoroquinolin-3-yl)methanone] | > 10 | –
COc1ccc2ncc(C(=O)N3CCN(C(=O)C4CC4)CC3)c(-c3cnn(C)c3)c2c1 [Example 41, (4-(cyclopropanecarbonyl)piperazin-1-yl)(6-methoxy-4-(1-methyl-1H-pyrazol-4-yl)quinolin-3-yl)methanone] | > 10 | –
CS(=O)(=O)N1CCN(C(=O)c2cnc3ccc(Cl)cc3c2N2CCC(C#N)(c3ccccc3)CC2)CC1 [Cpd. 316, 1-(6-chloro-3-(4-(methylsulfonyl)piperazine-1-carbonyl)quinolin-4-yl)-4-phenylpiperidine-4-carbonitrile] | – | < 0.5
CC1(C#N)CCN(c2c(C(=O)N3CCN(S(C)(=O)=O)CC3)cnc3ccc(F)cc23)CC1 [Example 86, 1-(6-fluoro-3-(4-(methylsulfonyl)piperazine-1-carbonyl)quinolin-4-yl)-4-methylpiperidine-4-carbonitrile] | – | 1 to 10
O=C(c1cnc2ccc(F)cc2c1N1CC2CCC(C2)C1)N1CCN(C(=O)C2CC2)CC1 [Example 82, (4-(3-azabicyclo[3.2.1]octan-3-yl)-6-fluoroquinolin-3-yl)(4-(cyclopropanecarbonyl)piperazin-1-yl)methanone] | – | > 10
CS(=O)(=O)N1CCN(C(=O)c2cnc3cc(F)c(F)cc3c2N2CCC(C#N)(c3ccccc3)CC2)CC1 [Cpd. 319, 1-(6,7-difluoro-3-(4-(methylsulfonyl)piperazine-1-carbonyl)quinolin-4-yl)-4-phenylpiperidine-4-carbonitrile] | – | < 0.5
CS(=O)(=O)N1CCN(C(=O)c2cnc3ccc(F)cc3c2-c2ccc(C3(C#N)CC3)cc2F)CC1 [Cpd. 315, 1-(3-fluoro-4-(6-fluoro-3-(4-(methylsulfonyl)piperazine-1-carbonyl)quinolin-4-yl)phenyl)cyclopropanecarbonitrile] | – | < 0.5
CC1(C#N)CCN(c2c(C(=O)N3CCN(S(=O)(=O)C4CC4)CC3)cnc3ccc(F)cc23)CC1 [Example 85, 1-(3-(4-(cyclopropylsulfonyl)piperazine-1-carbonyl)-6-fluoroquinolin-4-yl)-4-methylpiperidine-4-carbonitrile] | – | > 10
O=C(c1cnc2ccc(F)cc2c1N1CCC2(CC1)CC2)N1CCN(C(=O)C2CC2)CC1 [Example 59, (4-(cyclopropanecarbonyl)piperazin-1-yl)(6-fluoro-4-(6-azaspiro[2.5]octan-6-yl)quinolin-3-yl)methanone] | – | > 10
N#CC1CCN(c2c(C(=O)N3CCN(C(=O)C4CC4)CC3)cnc3ccc(F)cc23)CC1 [Cpd. 302, 1-(3-(4-(cyclopropanecarbonyl)piperazine-1-carbonyl)-6-fluoroquinolin-4-yl)piperidine-4-carbonitrile] | – | > 10
COc1cc2ncc(C(=O)N3CCN(C(=O)C4CC4)CC3)c(N3CCC4(CC3)OCCO4)c2cc1OC [Example 48, (4-(cyclopropanecarbonyl)piperazin-1-yl)(6,7-dimethoxy-4-(1,4-dioxa-8-azaspiro[4.5]decan-8-yl)quinolin-3-yl)methanone] | – | 1 to 10
COc1ccc2ncc(CN3CCN(C(=O)C4CC4)CC3)c(N3CCC4(CC3)OCCO4)c2c1 [Example 57, Cyclopropyl(4-((6-methoxy-4-(1,4-dioxa-8-azaspiro[4.5]decan-8-yl)quinolin-3-yl)methyl)piperazin-1-yl)methanone] | – | > 10
O=C(c1cnc2c(F)cc(F)cc2c1N1CCC2(CC1)OCCO2)N1CCN(C(=O)C2CC2)CC1 [Example 78, (4-(cyclopropanecarbonyl)piperazin-1-yl)(6,8-difluoro-4-(1,4-dioxa-8-azaspiro[4.5]decan-8-yl)quinolin-3-yl)methanone] | – | 1 to 10
CC(C)(C#N)c1ccc(-c2c(C(=O)N3CCN(S(C)(=O)=O)CC3)cnc3ccc(F)cc23)c(F)c1 [Cpd. 311, 2-(3-fluoro-4-(6-fluoro-3-(4-(methylsulfonyl)piperazine-1-carbonyl)quinolin-4-yl)phenyl)-2-methylpropanenitrile] | – | < 0.5

Continued, values first:

IC50 [1] [µM] | IC50 [2] [µM] | SMILES
– | 1 to 10 | CS(=O)(=O)N1CCN(C(=O)c2cnc3ccc(F)cc3c2N2CCC(CO)(c3ccccc3)CC2)CC1 [Example 256, (6-fluoro-4-(4-(hydroxymethyl)-4-phenylpiperidin-1-yl)quinolin-3-yl)(4-(methylsulfonyl)piperazin-1-yl)methanone]
– | < 0.5 | CC1(C)CC=C(c2c(C(=O)N3CCN(S(C)(=O)=O)CC3)cnc3ccc(F)cc23)CC1 [Example 301, (4-(4,4-dimethylcyclohex-1-en-1-yl)-6-fluoroquinolin-3-yl)(4-(methylsulfonyl)piperazin-1-yl)methanone]
– | < 0.5 | CC(C)(C#N)c1ccc(-c2c(C(=O)N3CCN(S(C)(=O)=O)CC3)cnc3ccc(F)cc23)cc1 [Example 211, 2-(4-(6-fluoro-3-(4-(methylsulfonyl)piperazine-1-carbonyl)quinolin-4-yl)phenyl)-2-methylpropanenitrile]
– | < 0.5 | CC(C)(C#N)c1ccc(-c2c(C(=O)N3CCN(C(=O)C4CC4)CC3)cnc3ccc(F)cc23)cc1 [Example 264, 2-(4-(3-(4-(cyclopropanecarbonyl)piperazine-1-carbonyl)-6-fluoroquinolin-4-yl)phenyl)-2-methylpropanenitrile]
– | 1 to 10 | CC1(C#N)CCN(c2c(C(=O)N3CCN(S(C)(=O)=O)CC3)cnc3[nH]ccc23)CC1 [Example 236, 4-methyl-1-(5-(4-(methylsulfonyl)piperazine-1-carbonyl)-1H-pyrrolo[2,3-b]pyridin-4-yl)piperidine-4-carbonitrile]
– | 1 to 10 | CC(C)C(=O)N1CCN(C(=O)c2cnc3ccc(F)cc3c2N2CCC(C)(C#N)CC2)CC1 [Example 92, 1-(6-fluoro-3-(4-isobutyrylpiperazine-1-carbonyl)quinolin-4-yl)-4-methylpiperidine-4-carbonitrile]
– | < 0.5 | CS(=O)(=O)N1CCN(C(=O)c2cnc3ccc(Cl)cc3c2-c2ccc(C3(C#N)CC3)cc2)CC1 [Example 297, 1-(4-(6-chloro-3-(4-(methylsulfonyl)piperazine-1-carbonyl)quinolin-4-yl)phenyl)cyclopropanecarbonitrile]
– | < 0.5 | N#CC1(c2ccccc2)CCN(c2c(C(=O)N3CCN(C(=O)C4CC4)CC3)cnc3ccc(F)cc23)CC1 [Example 208, 1-(3-(4-(cyclopropanecarbonyl)piperazine-1-carbonyl)-6-fluoroquinolin-4-yl)-4-phenylpiperidine-4-carbonitrile]
– | < 0.5 | CN(C)S(=O)(=O)N1CCN(C(=O)c2cnc3ccc(F)cc3c2N2CCC(C)(C#N)CC2)CC1 [Example 157, 4-(4-(4-cyano-4-methylpiperidin-1-yl)-6-fluoroquinoline-3-carbonyl)-N,N-dimethylpiperazine-1-sulfonamide]
– | < 0.5 | CCC1(C#N)CCN(c2c(C(=O)N3CCN(S(C)(=O)=O)CC3)cnc3ccc(F)cc23)CC1 [Example 197, 4-ethyl-1-(6-fluoro-3-(4-(methylsulfonyl)piperazine-1-carbonyl)quinolin-4-yl)piperidine-4-carbonitrile]
– | < 0.5 | CS(=O)(=O)N1CCN(C(=O)c2cnc3ccc(F)cc3c2-c2ccc(C3(C#N)CC3)cc2)CC1 [Example 210, 1-(4-(6-fluoro-3-(4-(methylsulfonyl)piperazine-1-carbonyl)quinolin-4-yl)phenyl)cyclopropanecarbonitrile]
– | 1 to 10 | CC1(C#N)CCN(c2c(C(=O)N3CCN(S(C)(=O)=O)CC3)cnc3ccsc23)CC1 [Example 234, 4-methyl-1-(6-(4-(methylsulfonyl)piperazine-1-carbonyl)thieno[3,2-b]pyridin-7-yl)piperidine-4-carbonitrile]
